Here are results for 18 compounds from US8273754B2, “Substituted 1H-pyrazolo[3,4-D]pyrimidine-6-amine compounds” (ArQule, Inc., priority 2008, dated 2012).

Where two headings read alike, the source gives them in different places.

The subject of this test is cancer cells. In words: MTS cell growth inhibition assay (72 hours). It is filed as cell-based. The gist of the method: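 Cells in DMEM with 1% FBS, seeded 18 h, then compound-treated 72 h at 37 °C. Viability by MTS/PMS for 4 h, formazan absorbance at 492 nm; IC50 taken as concentration giving 50% absorbance drop, activity banded by percent inhibition.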
Where [1] appears, read: Homo sapiens, DLD-1, 72 h, DLD-1 cells, read-out: DLD-1 MTS 72 hr at 10 μM.
Where [2] appears, read: Homo sapiens, KATO III, 72 h, KATO III cells, read-out: KATO III MTS 72 hr at 10 μM.
The mark [3] stands for this setting: Homo sapiens, MDA-MB-231, 72 h, MDA-MB-231 cells, read-out: MDA-MB-231 MTS 72 hr at 10 μM.
Setting [4] is: Homo sapiens, NCI-H1299, 72 h, NCI-H1299 cells, read-out: NCI-H1299 MTS 72 hr at 10 μM.
[5] abbreviates: PaCa-2, 72 h, PACA-2 cells, read-out: PACA-2 MTS 72 hr at 10 μM.

`Nc1nc(NC2Cc3ccccc3N(S(=O)(=O)c3ccc(NC(=O)Nc4ccccc4)cc3)C2)c2cn[nH]c2n1` (stereo not drawn) [Compound 225, 1-(4-(3-(6-amino-1H-pyrazolo[3,4-d]pyrimidin-4-ylamino)-3,4-dihydroquinolin-1(2H)-ylsulfonyl)phenyl)-3-phenylurea]: the inhibition at 10 µM is, setting by setting: under setting [1], greater than 79%; under setting [2], greater than 79%; under setting [3], greater than 79%; under setting [4], greater than 79%; under setting [5], greater than 79%.

As to `Cc1ccc(CN2CC(Nc3nc(N)nc4[nH]ncc34)Cc3ccccc32)cc1C` (stereo not drawn) [Compound 130, N4-[1-(3,4-dimethylbenzyl)-1,2,3,4-tetrahydroquinolin-3-yl]-1H-pyrazolo[3,4-d]pyrimidine-4,6-diamine], the inhibition at 10 µM is, setting by setting: under setting [1], less than 50%; under setting [2], less than 50%; under setting [3], less than 50%; under setting [4], less than 50%; under setting [5], less than 50%.

As for `Nc1nc(NC2Cc3ccccc3N(S(=O)(=O)c3ccc(F)c(F)c3)C2)c2cn[nH]c2n1` (stereo not drawn) [Compound 46, N4-(1-(3,4-difluorophenylsulfonyl)-1,2,3,4-tetrahydroquinolin-3-yl)-1H-pyrazolo[3,4-d]pyrimidine-4,6-diamine], the inhibition at 10 µM reads like this: under setting [1], less than 50%; under setting [2], less than 50%; under setting [3], less than 50%; under setting [4], less than 50%; under setting [5], less than 50%.

For the compound `Nc1nc(NC2Cc3ccccc3N(S(=O)(=O)c3ccc(Oc4ccccc4)cc3)C2)c2cn[nH]c2n1` (stereo not drawn) [Compound 27, N4-(1-(4-phenoxyphenylsulfonyl)-1,2,3,4-tetrahydroquinolin-3-yl)-1H-pyrazolo[3,4-d]pyrimidine-4,6-diamine], the inhibition at 10 µM under setting [1] is greater than 79%; the inhibition at 10 µM under setting [2] was greater than 79%; the inhibition at 10 µM under setting [3] is greater than 79%; the inhibition at 10 µM under setting [4] was in the range of 50 to 79%; the inhibition at 10 µM under setting [5] is greater than 79%.

Take `Nc1nc(NC2Cc3ccccc3N(C(=O)C3CCCCC3)C2)c2cn[nH]c2n1` (stereo not drawn) [Compound 84, (3-(6-amino-1H-pyrazolo[3,4-d]pyrimidin-4-ylamino)-3,4-dihydroquinolin-1(2H)-yl)(cyclohexyl)methanone]: the inhibition at 10 µM under setting [1] is less than 50%; the inhibition at 10 µM under setting [2] is less than 50%; the inhibition at 10 µM under setting [3] was less than 50%; the inhibition at 10 µM under setting [4] is less than 50%; the inhibition at 10 µM under setting [5] is less than 50%.

Take `Nc1nc(NC2Cc3ccccc3N(S(=O)(=O)c3ccc(-c4ccc(Cl)cc4)cc3)C2)c2cn[nH]c2n1` (stereo not drawn) [Compound 75, N4-(1-(4′-chlorobiphenyl-4-ylsulfonyl)-1,2,3,4-tetrahydroquinolin-3-yl)-1H-pyrazolo[3,4-d]pyrimidine-4,6-diamine]: the inhibition at 10 µM was greater than 79% under setting [1]; greater than 79% under setting [2]; greater than 79% under setting [3]; 50 to 79% under setting [4]; greater than 79% under setting [5].

Consider `Nc1nc(NC2Cc3ccccc3N(C(=O)c3ccc(C(F)(F)F)c(F)c3)C2)c2cn[nH]c2n1` (stereo not drawn) [Compound 100, (3-(6-amino-1H-pyrazolo[3,4-d]pyrimidin-4-ylamino)-3,4-dihydroquinolin-1(2H)-yl)(3-fluoro-4-(trifluoromethyl)phenyl)methanone], for which the inhibition at 10 µM was less than 50% under setting [1]; less than 50% under setting [2]; less than 50% under setting [3]; less than 50% under setting [4]; less than 50% under setting [5].

On to `CC1(C(=O)N2CC(Nc3nc(N)nc4[nH]ncc34)Cc3ccccc32)CCCCC1` (stereo not drawn) [Compound 96, (3-(6-amino-1H-pyrazolo[3,4-d]pyrimidin-4-ylamino)-3,4-dihydroquinolin-1(2H)-yl)(1-methylcyclohexyl)methanone], for which the inhibition at 10 µM is, setting by setting: under setting [1], less than 50%; under setting [2], less than 50%; under setting [3], less than 50%; under setting [4], less than 50%; under setting [5], less than 50%.

In the case of `Nc1nc(NC2Cc3ccccc3N(S(=O)(=O)c3ccc(NC(=O)NC4CCCc5ccccc54)cc3)C2)c2cn[nH]c2n1` (stereo not drawn) [Compound 192, 1-[4-({3-[(6-amino-1H-pyrazolo[3,4-d]pyrimidin-4-yl)amino]-3,4-dihydroquinolin-1(2H)-yl}sulfonyl)phenyl]-3-(1,2,3,4-tetrahydronaphthalen-1-yl)urea], the inhibition at 10 µM is greater than 79% under setting [1]; greater than 79% under setting [2]; greater than 79% under setting [3]; greater than 79% under setting [4]; greater than 79% under setting [5].

Consider `Nc1nc(NC2CCN(S(=O)(=O)c3ccc(C(F)(F)F)cc3)c3ccccc3C2)c2cn[nH]c2n1` (stereo not drawn) [Compound 186, N4-(1-{[4-(trifluoromethyl)phenyl]sulfonyl}-2,3,4,5-tetrahydro-1H-1-benzazepin-4-yl)-1H-pyrazolo[3,4-d]pyrimidine-4,6-diamine], for which the inhibition at 10 µM is, setting by setting: under setting [1], less than 50%; under setting [2], less than 50%; under setting [3], less than 50%; under setting [4], less than 50%; under setting [5], less than 50%.

Take `Nc1nc(NC2Cc3ccccc3N(S(=O)(=O)c3cccc(NC(=O)Nc4ccccc4)c3)C2)c2cn[nH]c2n1` (stereo not drawn) [Compound 200, 1-[3-({3-[(6-amino-1H-pyrazolo[3,4-d]pyrimidin-4-yl)amino]-3,4-dihydroquinolin-1(2H)-yl}sulfonyl)phenyl]-3-phenylurea]: the inhibition at 10 µM is, setting by setting: under setting [1], less than 50%; under setting [2], less than 50%; under setting [3], less than 50%; under setting [4], less than 50%; under setting [5], less than 50%.

In the case of `Nc1nc(NC2Cc3ccccc3N(S(=O)(=O)c3cccc(NC(=O)Nc4cccc(Cl)c4Cl)c3)C2)c2cn[nH]c2n1` (stereo not drawn) [Compound 211, 1-[3-({3-[(6-amino-1H-pyrazolo[3,4-d]pyrimidin-4-yl)amino]-3,4-dihydroquinolin-1(2H)-yl}sulfonyl)phenyl]-3-(2,3-dichlorophenyl)urea], the inhibition at 10 µM under setting [1] is greater than 79%; the inhibition at 10 µM under setting [2] was greater than 79%; the inhibition at 10 µM under setting [3] is greater than 79%; the inhibition at 10 µM under setting [4] was greater than 79%; the inhibition at 10 µM under setting [5] was greater than 79%.

Turning to `Nc1nc(NC2Cc3ccccc3N(C(=O)c3ccccc3Br)C2)c2cn[nH]c2n1` (stereo not drawn) [Compound 81, (3-(6-amino-1H-pyrazolo[3,4-d]pyrimidin-4-ylamino)-3,4-dihydroquinolin-1(2H)-yl)(2-bromophenyl)methanone], the inhibition at 10 µM is 50 to 79% under setting [1]; greater than 79% under setting [2]; greater than 79% under setting [3]; less than 50% under setting [4]; 50 to 79% under setting [5].

`Nc1nc(NC2CCN(S(=O)(=O)c3ccc(F)cc3)c3ccccc3C2)c2cn[nH]c2n1` (stereo not drawn) [Compound 183, N4-{1-[(4-fluorophenyl)sulfonyl]-2,3,4,5-tetrahydro-1H-1-benzazepin-4-yl}-1H-pyrazolo[3,4-d]pyrimidine-4,6-diamine]: the inhibition at 10 µM was less than 50% under setting [1]; less than 50% under setting [2]; less than 50% under setting [3]; less than 50% under setting [4]; less than 50% under setting [5].

Regarding `Nc1nc(NC2Cc3ccccc3N(C(=O)c3cc(Cl)cc(Cl)c3)C2)c2cn[nH]c2n1` (stereo not drawn) [Compound 90, (3-(6-amino-1H-pyrazolo[3,4-d]pyrimidin-4-ylamino)-3,4-dihydroquinolin-1(2H)-yl)(3,5-dichlorophenyl)methanone], the inhibition at 10 µM under setting [1] was greater than 79%; the inhibition at 10 µM under setting [2] was greater than 79%; the inhibition at 10 µM under setting [3] is greater than 79%; the inhibition at 10 µM under setting [4] is greater than 79%; the inhibition at 10 µM under setting [5] is greater than 79%.

Consider `Nc1nc(NC2Cc3ccccc3N(Cc3cn(-c4ccccc4)nc3-c3ccccc3)C2)c2cn[nH]c2n1` (stereo not drawn) [Compound 151, N4-{1-[(1,3-diphenyl-1H-pyrazol-4-yl)methyl]-1,2,3,4-tetrahydroquinolin-3-yl}-1H-pyrazolo[3,4-d]pyrimidine-4,6-diamine], for which the inhibition at 10 µM runs as follows: under setting [1], greater than 79%; under setting [2], greater than 79%; under setting [3], less than 50%; under setting [4], less than 50%; under setting [5], greater than 79%.

Take `Nc1nc(NC2Cc3ccccc3N(S(=O)(=O)c3cccc(NC(=O)Nc4ccc5ccccc5c4)c3)C2)c2cn[nH]c2n1` (stereo not drawn) [Compound 212, 1-[3-({3-[(6-amino-1H-pyrazolo[3,4-d]pyrimidin-4-yl)amino]-3,4-dihydroquinolin-1(2H)-yl}sulfonyl)phenyl]-3-(2-naphthyl)urea]: the inhibition at 10 µM reads like this: under setting [1], greater than 79%; under setting [2], greater than 79%; under setting [3], greater than 79%; under setting [4], greater than 79%; under setting [5], greater than 79%.

On to `Nc1nc(NC2Cc3ccccc3N(S(=O)(=O)Cc3ccccc3)C2)c2cn[nH]c2n1` (stereo not drawn) [Compound 21, N4-(1-(benzylsulfonyl)-1,2,3,4-tetrahydroquinolin-3-yl)-1H-pyrazolo[3,4-d]pyrimidine-4,6-diamine], for which the inhibition at 10 µM is greater than 79% under setting [1]; greater than 79% under setting [2]; 50 to 79% under setting [3]; less than 50% under setting [4]; greater than 79% under setting [5].
